Reference: patent publication US20140080810A1 (Exelixis, Inc., priority 2010, published 2014)

test system: pAKT (T308) in PC-3 cells (PTEN-null); assay: pAKT (T308) ELISA Assay; assay type: cell-based; conditions: Homo sapiens, IGF1 stimulation, read-out: pAKT (T308) IC50 PC# PTEN-null IGF1
Description: MCF-7 cells (ATCC) cells were seeded at 24000 cells per well in 96-well plates (Corning, 3904) in DMEM (Cellgro) containing 10% FBS (Cellgro), 1% NEAA (Cellgro) and 1% penicillin-streptomycin (Cellgro). Cells were incubated at 37° C., 5% CO2 for 48 h, and the growth medium was replaced with serum-free DMEM or in medium containing 0.4% BSA. Serial dilutions of the test Compound in 0.3% DMSO (vehicle) were added to the cells and incubated for 3 h. At the end of the incubation period, cells were stimulated for 10 minutes by the addition of L-IGF (Sigma, I-1271) at a final concentration of 100 ng/ml. Afterwards, media was discarded from cell plates and 110 μl/well of cold lysis buffer (see table below) were added. Cell plates were incubated on ice and then put on shaker in 4° C. cold room for 1 h. Two capture plates (Thermo Scientific, Reacti-bind plate, 15042) were prepared for each cell plate by pre-coating with capture Akt antibody from the two sandwich ELISA antibody pairs used (Cell Signaling Technology 7142 and 7144). The Akt capture antibodies were diluted 1:100 in PBS and 100 μl of diluted capture antibody was added per well. Capture plates were incubated at 4 C overnight. […] After 1 h of cell lysis, 85 μl of cell lysate/well was transferred to the capture plate for detection of pAkt(T308). 15 μl of cell lysate was transferred from same well to the second capture plate for detection of total Akt1. After incubation overnight at 4° C., plates were washed 3 times with 200 μL TBST. Primary antibodies, diluted 1:100 in blocking buffer, were added to the corresponding capture plates for pAkt(T308) (Cell Signaling Technology, 7144) and total Akt1 (Cell Signaling Technology, 7142) detection and incubated at room temperature for 1 h. Plates were washed 3 times with 200 μL of TBST. Goat anti-mouse secondary antibody (Cell Signaling Technology, 7076) conjugated to HRP was diluted 1:1000 in blocking buffer and 100 μl were added to each well and incubated for 30 minutes at room temperature. Plates were then washed 3 times with 200 μL of TBST. 100 μL of SuperSignal ELISA Femto stable peroxidase solution (Thermo Scientific, 37075) was added to each well. After 1 minute incubation, chemiluminescence was read on a Wallac Victor2 1420 multilabel counter. IC50 values were determined based on the ratio of pAkt(T308) to total Akt1 signal for Compound treated wells, normalized to the DMSO-treated control wells.
In another embodiment, the pAKT ELISA Assay was performed by seeding cells onto 96-well plates (Corning, 3904) in their respective growth media at the densities listed in Table 5. Cells were incubated at 37° C., 5% CO2 for 48 h (except MDA-MB-453 cells which were cultured in the absence of CO2). Compounds were serially diluted in DMSO and subsequently diluted in serum-free DMEM. Test compounds were added to cells in serum-free DMEM at a final concentration of 0.3% DMSO and incubated for 3 h. Cells were lysed with 130 μL of ice-cold RIPA lysis buffer (50 mM Tris-HCl, pH 7.5; 0.5% sodium deoxycholic acid; 1% Triton X-100; 0.1% SDS; 150 mM NaCl) with protease and phosphatase inhibitors (1 mM EDTA, 1 mM NaF, 20 mM β-glycerophosphate, 1 mM Na-orthovanadate, Complete-Mini EDTA-free, Roche, 11836170001, and Phosphatase Inhibitor Cocktail I, Sigma, P2850), directly in 96-well plates. Cells were lysed on ice for 60-120 min at 4° C. The supernatants were added directly to capture ELISA plates previously pre-coated with rabbit anti-AKT capture antibody. ELISA assays for pAKT(T308) and total AKT were performed with the pAKT(T308) ELISA kit (Cell Signaling Technology, 7144) and AKT1 ELISA kit (Cell Signaling Technology, 7142). For the pAKT(T308) ELISA, 85 μL of cell lysate was added to each well. For the total AKT1 ELISA, 15 μL of cell lysate and 85 μL of Starting Block buffer (Pierce, 37543) were added to each well.

IC50 [nM] | Structure (SMILES)
2870 | CCNc1nc2ccc(-c3ccc4c(c3)CN(c3ccnc5cc(F)ccc35)CCO4)cc2[nH]1 [Compound 698]
2120 | CCNc1nc2ccc(-c3ccc4c(c3)CN(c3ncnc(NCC)c3C)CCO4)cc2[nH]1 [Compound 699]

Further lines, the compound ahead of its results:

Structure (SMILES) | IC50 [nM]
Cc1nc2cc(-c3ccc4c(c3)CN(c3nc(CN(C)C)nc(C)c3C(C)C)CCO4)cnc2[nH]1 [Compound 694] | 231
COc1ccc2c(N3CCOc4ccc(-c5cnc6nc(C)[nH]c6c5)cc4C3)nc(CN(C)C)nc2c1 [Compound 696] | 1680

same assay, conditions: Homo sapiens, LPA stimulation, read-out: pAKT (T308) IC50 PC# PTEN-null LPA

IC50 [nM] | Structure (SMILES)
4540 | CCNc1nc2ccc(-c3ccc4c(c3)CN(c3ccnc5cc(F)ccc35)CCO4)cc2[nH]1 [Compound 698]
3800 | CCNc1nc2ccc(-c3ccc4c(c3)CN(c3ncnc(NCC)c3C)CCO4)cc2[nH]1 [Compound 699]

Continued, compound first:

Structure (SMILES) | IC50 [nM]
Cc1nc2cc(-c3ccc4c(c3)CN(c3nc(CN(C)C)nc(C)c3C(C)C)CCO4)cnc2[nH]1 [Compound 694] | 571
COc1ccc2c(N3CCOc4ccc(-c5cnc6nc(C)[nH]c6c5)cc4C3)nc(CN(C)C)nc2c1 [Compound 696] | 1860

molecular target: PI3Kα E545K (Homo sapiens, UniProt P42336, E545K); assay: PI3K Biochemical Assay; conditions: PIP2 used as substrate
Description: (§1) PI3Kα activity is measured as the percent of ATP consumed following the kinase reaction using luciferase-luciferin-coupled chemiluminescence. Reactions were conducted in 384-well white, medium binding microtiter plates (Greiner). Kinase reactions were initiated by combining test compounds, ATP, substrate (PIP2), and kinase in a 20 μL volume in a buffer solution. The standard PI3Kalpha assay buffer is composed 50 mM Tris, pH 7.5, 1 mM EGTA, 10 mM MgCl2, 1 mM DTT and 0.03% CHAPS. The standard assay concentrations for enzyme, ATP, and substrate are 1.5 nM, 1 μM, and 10 μM, respectively. The reaction mixture was incubated at ambient temperature for approximately 2 h. Following the kinase reaction, a 10 μL aliquot of luciferase-luciferin mix (Promega Kinase-Glo) was added and the chemiluminescence signal measured using a Victor2 plate reader (Perkin Elmer). Total ATP consumption was limited to 40-60% and IC50 values of control compounds correlate well with literature references. Substituting PI3Kα with PI3Kβ, PI3Kγ, or PI3Kδ, the inhibitory activity of the compounds for the other isoforms of I3K were measured.

Chain of PI3Kα E545K (P42336 whole entry E545K): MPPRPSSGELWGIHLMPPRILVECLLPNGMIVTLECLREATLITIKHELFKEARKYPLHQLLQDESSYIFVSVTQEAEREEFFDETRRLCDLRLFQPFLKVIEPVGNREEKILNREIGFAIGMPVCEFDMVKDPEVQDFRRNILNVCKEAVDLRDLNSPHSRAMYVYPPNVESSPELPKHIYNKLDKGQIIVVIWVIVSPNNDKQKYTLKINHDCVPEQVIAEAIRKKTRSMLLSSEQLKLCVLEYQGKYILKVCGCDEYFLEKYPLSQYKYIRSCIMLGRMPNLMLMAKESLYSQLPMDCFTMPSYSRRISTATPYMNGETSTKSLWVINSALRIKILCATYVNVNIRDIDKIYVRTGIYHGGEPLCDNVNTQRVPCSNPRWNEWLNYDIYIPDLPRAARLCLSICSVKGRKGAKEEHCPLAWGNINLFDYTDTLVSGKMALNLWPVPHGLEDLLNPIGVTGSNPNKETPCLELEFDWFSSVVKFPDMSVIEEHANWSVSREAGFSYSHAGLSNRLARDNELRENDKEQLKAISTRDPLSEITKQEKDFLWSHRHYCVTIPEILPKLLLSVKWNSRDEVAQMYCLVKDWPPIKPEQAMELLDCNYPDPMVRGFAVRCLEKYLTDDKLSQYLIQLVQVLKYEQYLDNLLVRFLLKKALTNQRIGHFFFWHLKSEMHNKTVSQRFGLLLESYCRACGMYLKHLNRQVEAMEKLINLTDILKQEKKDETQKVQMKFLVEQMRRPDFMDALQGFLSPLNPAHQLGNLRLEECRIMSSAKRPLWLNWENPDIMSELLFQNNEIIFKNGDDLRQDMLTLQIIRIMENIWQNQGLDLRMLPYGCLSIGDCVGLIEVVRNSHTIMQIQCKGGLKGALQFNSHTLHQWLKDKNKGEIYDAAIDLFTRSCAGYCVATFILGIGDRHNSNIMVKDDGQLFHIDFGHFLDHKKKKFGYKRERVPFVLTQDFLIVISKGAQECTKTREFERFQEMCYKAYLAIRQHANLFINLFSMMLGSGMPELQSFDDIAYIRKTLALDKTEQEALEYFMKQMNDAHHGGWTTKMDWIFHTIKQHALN
Chain of PI3Kα E545K (P27986 whole entry partner): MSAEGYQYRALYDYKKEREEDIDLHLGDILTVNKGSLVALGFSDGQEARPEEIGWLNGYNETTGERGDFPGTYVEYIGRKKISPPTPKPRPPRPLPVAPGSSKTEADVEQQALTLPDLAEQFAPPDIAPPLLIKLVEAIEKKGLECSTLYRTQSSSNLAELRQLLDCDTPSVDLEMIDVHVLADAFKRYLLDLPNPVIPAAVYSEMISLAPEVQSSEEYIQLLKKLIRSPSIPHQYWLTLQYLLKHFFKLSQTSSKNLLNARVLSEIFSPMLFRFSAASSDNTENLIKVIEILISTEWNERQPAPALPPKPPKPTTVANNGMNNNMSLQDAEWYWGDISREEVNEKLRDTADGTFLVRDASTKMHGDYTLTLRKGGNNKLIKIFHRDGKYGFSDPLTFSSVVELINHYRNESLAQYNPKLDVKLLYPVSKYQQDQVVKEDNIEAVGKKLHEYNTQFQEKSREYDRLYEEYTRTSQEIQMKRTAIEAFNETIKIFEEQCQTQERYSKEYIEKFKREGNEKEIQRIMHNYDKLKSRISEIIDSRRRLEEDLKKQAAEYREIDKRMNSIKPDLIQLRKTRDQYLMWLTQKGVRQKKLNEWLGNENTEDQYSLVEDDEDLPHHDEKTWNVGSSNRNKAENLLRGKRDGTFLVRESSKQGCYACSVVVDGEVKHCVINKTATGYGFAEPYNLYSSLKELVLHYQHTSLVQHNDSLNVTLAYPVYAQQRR

IC50 [nM] | Structure (SMILES)
6 | CCNc1nc2ccc(-c3ccc4c(c3)CN(c3ccnc5cc(F)ccc35)CCO4)cc2[nH]1 [Compound 698]
5 | CCNc1nc2ccc(-c3ccc4c(c3)CN(c3ncnc(NCC)c3C)CCO4)cc2[nH]1 [Compound 699]

The next lines start with the compound.

Structure (SMILES) | IC50 [nM]
Cc1nc2ncc(-c3ccc4c(c3)CN(c3nc(CN(C)C)nc5c3CC(C)(C)CC5)CCO4)cc2[nH]1 [Compound 693] | 5
Cc1nc2cc(-c3ccc4c(c3)CN(c3nc(CN(C)C)nc(C)c3C(C)C)CCO4)cnc2[nH]1 [Compound 694] | 6
COc1ccc2c(N3CCOc4ccc(-c5cnc6nc(C)[nH]c6c5)cc4C3)nc(CN(C)C)nc2c1 [Compound 696] | 9

molecular target: PI3Kα (Homo sapiens, UniProt P42336); assay: PI3K Biochemical Assay (ATP consumed, luciferase-luciferin chemiluminescence); conditions: PIP2 used as substrate; read-out: PI3K biochemical IC50 values PI3Kα
Description: as §1

Chain of PI3Kα (P42336 whole entry): as the sequence (P42336 whole entry E545K) above, with K545E counted along it
Chain of PI3Kα (P27986 whole entry partner): as the sequence (P27986 whole entry partner) above

IC50 [nM] | Structure (SMILES)
3 | CCNc1nc2ccc(-c3ccc4c(c3)CN(c3ccnc5cc(F)ccc35)CCO4)cc2[nH]1 [Compound 698]
6 | CCNc1nc2ccc(-c3ccc4c(c3)CN(c3ncnc(NCC)c3C)CCO4)cc2[nH]1 [Compound 699]

The remaining lines, values behind:

Structure (SMILES) | IC50 [nM]
Cc1nc2ncc(-c3ccc4c(c3)CN(c3nc(CN(C)C)nc5c3CC(C)(C)CC5)CCO4)cc2[nH]1 [Compound 693] | 2
Cc1nc2cc(-c3ccc4c(c3)CN(c3nc(CN(C)C)nc(C)c3C(C)C)CCO4)cnc2[nH]1 [Compound 694] | 4
COc1ccc2c(N3CCOc4ccc(-c5cnc6nc(C)[nH]c6c5)cc4C3)nc(CN(C)C)nc2c1 [Compound 696] | 3

same assay, conditions: summary of Table 3

specificity among PI3Kα, PI3Kβ, PI3Kδ, PI3Kγ and mTOR | Structure (SMILES)
specific for PI3Kα isoforms | COc1ccc2c(N3CCOc4ccc(-c5cnc6nc(C)[nH]c6c5)cc4C3)nc(CN(C)C)nc2c1 [Compound 696]
specific for PI3Kα isoforms | CCNc1nc2ccc(-c3ccc4c(c3)CN(c3ccnc5cc(F)ccc35)CCO4)cc2[nH]1 [Compound 698]
specific for PI3Kα isoforms | CCNc1nc2ccc(-c3ccc4c(c3)CN(c3ncnc(NCC)c3C)CCO4)cc2[nH]1 [Compound 699]
